Assay results published in ChEMBL document CHEMBL1201862, “PubChem BioAssay data set” (2004).
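Growth conditions: 96-well plates. Treatment: test compound, 48 hours, 5 concentrations. Analysis: linear interpolation between bracketing concentrations; unreached endpoints set to highest concentration. GI50: concentration for 50% inhibition of growth.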 The source made the active and inactive calls. No stated cut-off is given here; in the data, active = GI50 up to about 1.1 µM and inactive = higher.

How the values were obtained:
Test in all cases: DTP human tumour cell line panel, 48 h
[1] = test system: 786-0
[2] = test system: BT-549
[3] = test system: CCRF-CEM
[4] = test system: COLO 205
[5] = test system: HL-60
[6] = test system: HT-29
[7] = test system: Hs-578T
[8] = test system: IGROV-1
[9] = test system: K562
[10] = test system: MDA-MB-435
[11] = test system: NCI-H226
[12] = test system: NCI-H460
[13] = test system: SF-268
[14] = test system: SK-MEL-5
[15] = test system: SN12C
[16] = test system: SNB-19
[17] = test system: SR
[18] = test system: T47D
[19] = test system: UO-31
[20] = test system: MOLT-4

Measured: GI50

O=C(O)C1(Nc2ccc(Cl)cc2)CCCC1
inactive: [1] > 100 µM | [2] > 100 µM | [3] > 100 µM | [4] 33 µM | [5] 77.8 µM | [6] > 100 µM | [7] > 100 µM | [8] > 100 µM | [9] > 100 µM | [10] > 100 µM | [11] > 100 µM | [12] > 100 µM | [13] > 100 µM | [14] > 100 µM | [15] > 100 µM | [16] > 100 µM | [17] > 100 µM | [18] > 100 µM | [19] > 100 µM

CN(C)c1cccc(F)c1C(=O)NC(=O)Nc1ccc(Cl)cc1
active: [3] 0.745 µM | [5] 0.533 µM | [6] 1.07 µM | [9] 0.479 µM | [10] 0.118 µM | [17] 0.218 µM
inactive: [1] 2.98 µM | [2] 8.95 µM | [4] 2.21 µM | [7] 2.21 µM | [8] 3.78 µM | [20] 1.62 µM | [11] 5.5 µM | [12] 1.91 µM | [13] 12 µM | [14] 3.33 µM | [15] 8.83 µM | [16] > 26.1 µM | [18] 4.86 µM | [19] 5.87 µM

COc1cccc2c1OC(c1cccc3ccccc13)C([N+](=O)[O-])=C2 (configuration not stated)
inactive: [1] 1.87 µM | [2] 1.17 µM | [4] 1.92 µM | [6] 1.92 µM | [7] 2.48 µM | [8] 2.49 µM | [10] 1.51 µM | [11] 2 µM | [12] 1.9 µM | [13] 2.96 µM | [14] 1.59 µM | [15] 2 µM | [16] 1.53 µM | [18] 2.22 µM | [19] 1.44 µM
active: [3] 0.312 µM | [5] 0.612 µM | [9] 0.685 µM | [20] 0.552 µM | [17] 0.604 µM

CN1CCC(O)(C(C)(C)C)CC1
inactive: [1] > 100 µM | [2] > 100 µM | [3] > 100 µM | [4] > 100 µM | [5] > 100 µM | [6] > 100 µM | [7] > 100 µM | [8] > 100 µM | [9] > 100 µM | [10] > 100 µM | [20] > 100 µM | [11] > 100 µM | [12] > 100 µM | [13] > 100 µM | [14] > 100 µM | [15] > 100 µM | [16] > 100 µM | [17] > 100 µM | [18] > 100 µM | [19] > 100 µM

COc1c(O)c(O)c2c(c1O)C(=O)c1cc(C)cc(O)c1C2=O
inactive: [1] 36.7 µM | [2] 40.4 µM | [3] 33.3 µM | [4] 24.5 µM | [5] 50 µM | [6] 24.4 µM | [7] 19.6 µM | [8] 13.2 µM | [9] 37.4 µM | [10] 53.8 µM | [20] 15.4 µM | [11] 20 µM | [12] 18.7 µM | [13] 30.2 µM | [14] 29.9 µM | [15] 50.7 µM | [16] 65.3 µM | [17] 31.6 µM | [18] 24.8 µM | [19] 23.1 µM

COC1C=C(NCC2(CO)CCC2)N=C(N)N1 (configuration not stated)
inactive: [1] > 100 µM | [2] > 100 µM | [3] > 100 µM | [4] > 100 µM | [5] > 100 µM | [6] > 100 µM | [7] > 100 µM | [8] > 100 µM | [9] > 100 µM | [10] > 100 µM | [20] > 100 µM | [11] > 100 µM | [12] > 100 µM | [13] > 100 µM | [14] > 100 µM | [15] > 100 µM | [16] > 100 µM | [17] > 100 µM | [18] > 100 µM | [19] > 100 µM

COc1ccc(NC(=O)CC(=O)NN)cc1
inactive: [1] > 100 µM | [2] > 100 µM | [3] > 100 µM | [4] > 100 µM | [5] > 100 µM | [6] > 100 µM | [7] > 100 µM | [8] > 100 µM | [9] > 100 µM | [10] > 100 µM | [20] > 100 µM | [11] > 100 µM | [12] > 100 µM | [13] > 100 µM | [14] > 100 µM | [15] > 100 µM | [16] > 100 µM | [17] > 100 µM | [18] > 100 µM | [19] > 100 µM

O=P12N(CCN1c1ccccc1)CCN2c1ccccc1
inactive: [1] > 100 µM | [2] > 100 µM | [3] > 100 µM | [4] > 100 µM | [5] > 100 µM | [6] > 100 µM | [7] > 100 µM | [8] > 100 µM | [9] > 100 µM | [10] > 100 µM | [20] > 100 µM | [11] > 100 µM | [12] > 100 µM | [13] > 100 µM | [14] > 100 µM | [15] > 100 µM | [16] > 100 µM | [17] > 100 µM | [18] > 100 µM | [19] > 100 µM

O=C(Nc1ccccc1)c1cc(S(=O)(=O)N2CCNNC2=O)c(S)cc1Cl
inactive: [1] 47.6 µM | [2] 37.5 µM | [3] 71.9 µM | [4] > 100 µM | [5] > 100 µM | [7] > 100 µM | [8] > 100 µM | [9] 84.9 µM | [10] > 100 µM | [20] 71.6 µM | [11] > 100 µM | [12] > 100 µM | [13] > 100 µM | [14] > 100 µM | [15] > 100 µM | [16] > 100 µM | [17] 95.3 µM | [18] 44.5 µM | [19] > 100 µM

OCc1ccn2c1[C@@H](O)CC2
inactive: [1] > 100 µM | [2] > 100 µM | [3] > 100 µM | [4] > 100 µM | [5] > 100 µM | [6] > 100 µM | [7] > 100 µM | [8] > 100 µM | [9] > 100 µM | [10] > 100 µM | [20] > 100 µM | [11] > 100 µM | [12] > 100 µM | [13] > 100 µM | [14] > 100 µM | [15] > 100 µM | [16] > 100 µM | [17] > 100 µM | [18] > 100 µM
